Measured values reported in patent EP0138995B1, “REGULATION OF ENZYMES WHICH UTILIZE TETRAHYDROBIOPTERIN OR TETRAHYDROFOLATE COFACTORS WITH 6, 6-DISUBSTITUTED-TETRAHYDROPTERIDINES” (South Alabama Medical Science Foundation, priority 1983, dated 1984).
≈ marks a conversion by molar mass, not a printed value. Like-named read-outs stand apart in the source and are kept apart here. Each block holds one compound with its values, some of them ahead of it.

Columns and labels:
[1] = molecular target: T1, Sheep Liver Dihydropteridine Reductase (Ovis aries, UniProt A0ACI6QPJ5); assay: Quinoid dihydropterin as substrate for dihydropteridine reductase (sheep liver); type: biochemical
T1 sequence (A0ACI6QPJ5 46-254): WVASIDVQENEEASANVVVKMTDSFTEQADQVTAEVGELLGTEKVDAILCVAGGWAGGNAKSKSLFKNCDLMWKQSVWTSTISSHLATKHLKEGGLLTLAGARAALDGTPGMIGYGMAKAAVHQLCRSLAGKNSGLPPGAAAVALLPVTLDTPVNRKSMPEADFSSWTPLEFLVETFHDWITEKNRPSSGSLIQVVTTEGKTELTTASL
Protocol: The quinoid was generated from 6,6-Me₂PH₄, as outlined previously. […] Peroxidase (6 units/ml final volume) was temperature equilibrated in 0.1 M Tris·HCl, pH 7.4, at 27° for 5 minutes. H₂O₂ (1.2 mM final concentration) was then added, followed by 6,6-Me₂PH₄. Conversion to q-6,6-Me₂PH₂, monitored at 340 nm, was complete within a few seconds. • (iii) Generation by phenylalanine hydroxylase: […] At 5 minutes, 6,6-Me₂PH₄ was introduced and monitored at 340 nm. Conversion of 6,6-Me₂PH₄ to quinoid dihydropterin was complete in 1-7 minutes, depending on the concentration. […] Reaction was then initiated with dihydropteridine reductase (0.01 units/ml). Rates were calculated from the enzyme dependent decrease in O.D. at 340 nm, using an extinction coefficient of 9.8 for the chemically synthesized substrate and 6.2 for the peroxidase- and phenylalanine-hydroxylase-containing reactions in which the pterin is maintained in the quinoid form. […] This Km was obtained regardless of the method of generation of the quinoid dihydropterin. The Vmax's were also the same for the dihydropteridine reductase catalyzed reduction of quinoid generated by any of the three methods (Table VI). Thus, the quinoid products of each procedure appear to behave equally.

[2] = Stability (decay) of quinoid-6,6-Me2PH2 monitored spectrophotometrically; type: physicochemical
Protocol: Stability. The decay of q-6,6-Me₂PH₂ in a variety of environments was monitored spectrophotometrically. […] In water, a plateau of highest stability is observed near neutral pH. At pH 6.8, solutions kept on ice have a half-life greater than 100 hours. […] Loss of quinoid is somewhat increased in acid and greatly accelerated in base. […] This process is not affected by the presence of oxygen.

[3] = Non-enzymatic reduction of quinoid-6,6-Me2PH2 by physiological reducing agents; type: physicochemical; details: 0.1 M Tris·HCl, pH 7.4 at 37°
Protocol: Non-Enzymatic Reduction of Quinoid-6,6-Me₂PH₂ under Physiological Conditions. Aromatic amino acid hydroxylase cofactor analogs which are relatively stable in the quinoid-dihydro form may have therapeutic potential for treatment of dihydropteridine reductase deficiency. Thus, it was of interest to determine the rate at which quinoid is reduced to the tetrahydropterin by various physiological reducing agents. Rates were measured in 0.1 M Tris·HCl, pH 7.4 at 37°, from the decrease in absorbance at 340 nm. A reaction first order in each component was observed. With NADH, NADPH and absorbic acid, the rate of reduction (k=660 M⁻¹min⁻¹) was the same. The rate with cysteine was about four times slower (k=160 M⁻¹min⁻¹).

[4] = molecular target: T2, phenylalanine hydroxylase (Rattus norvegicus, UniProt P04176); assay: Inhibition of phenylalanine hydroxylase by dihydropterins; type: biochemical; details: concentrations up to 0.4 mM; 6,6-Me2PH4 as cofactor 0.05-0.3 mM
T2 construct: from tissue
T2 sequence (P04176 1-453): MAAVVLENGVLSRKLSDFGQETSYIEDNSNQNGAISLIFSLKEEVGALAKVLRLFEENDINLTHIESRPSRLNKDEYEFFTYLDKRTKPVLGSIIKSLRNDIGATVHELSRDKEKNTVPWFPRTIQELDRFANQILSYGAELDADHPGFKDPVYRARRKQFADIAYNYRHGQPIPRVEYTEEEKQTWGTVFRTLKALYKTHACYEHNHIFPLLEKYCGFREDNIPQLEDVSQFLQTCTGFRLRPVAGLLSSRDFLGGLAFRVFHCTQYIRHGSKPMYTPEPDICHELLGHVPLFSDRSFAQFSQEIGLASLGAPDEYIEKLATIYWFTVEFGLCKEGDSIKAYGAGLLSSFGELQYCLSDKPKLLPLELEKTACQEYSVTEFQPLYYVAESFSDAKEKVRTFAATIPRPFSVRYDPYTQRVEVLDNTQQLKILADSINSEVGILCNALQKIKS
Protocol: Measurements were made under standard assay conditions with cofactor concentration varied between 0.05 and 0.3 mM. Stock solutions of 6,6-Me₂PH₂ were in 0.1 M assay buffer.
Standard assay conditions, with 6-MePH₄ as cofactor over a range of 0.05 mM to 0.3 mM, were employed.

[5] = Spectrophotometric pKa determination of quinoid dihydropterin; type: physicochemical; details: sodium succinate buffer; transition between neutral and monocationic species; sodium succinate buffers, I=0.01, 25°C
Protocol: pKa. The pKa for the transition between the neutral and monocationic species of q-6,6-Me₂PH₂ was determined spectrophotometrically. A concentrated stock solution of quinoid, free of elemental bromine, in n-propanol was diluted to 0.1 mM into a series of sodium succinate buffers at constant ionic strength (I=0.01). Spectra, background corrected for each buffer individually, were acquired on a Perkin-Elmer 552 spectrophotometer thermostated to 25°C.

[6] = molecular target: T3, Beef Liver Dihydropteridine Reductase (Bos taurus, UniProt Q3T0Z7); assay: Quinoid dihydropterin as substrate for dihydropteridine reductase (beef liver); type: biochemical
T3 construct: from tissue; host or cells: beef liver
T3 sequence (Q3T0Z7 1-242): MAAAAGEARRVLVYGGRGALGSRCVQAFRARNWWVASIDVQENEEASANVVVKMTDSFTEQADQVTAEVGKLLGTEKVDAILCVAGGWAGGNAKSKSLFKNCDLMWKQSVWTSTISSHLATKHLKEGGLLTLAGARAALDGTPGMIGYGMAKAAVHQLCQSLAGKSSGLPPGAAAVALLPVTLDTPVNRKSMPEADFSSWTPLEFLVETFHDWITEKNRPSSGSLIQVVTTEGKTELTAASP
Protocol: The quinoid was generated from 6,6-Me₂PH₄, as outlined previously. […] Peroxidase (6 units/ml final volume) was temperature equilibrated in 0.1 M Tris·HCl, pH 7.4, at 27° for 5 minutes. H₂O₂ (1.2 mM final concentration) was then added, followed by 6,6-Me₂PH₄. […] At 5 minutes, 6,6-Me₂PH₄ was introduced and monitored at 340 nm. […] Reaction was then initiated with dihydropteridine reductase (0.01 units/ml). Rates were calculated from the enzyme dependent decrease in O.D. at 340 nm, using an extinction coefficient of 9.8 for the chemically synthesized substrate and 6.2 for the peroxidase- and phenylalanine-hydroxylase-containing reactions in which the pterin is maintained in the quinoid form.

[7] = Near-saturation concentration at neutral pH; type: physicochemical; details: organic solvent or mixture, in 0.5 M 2-mercaptoethanol, room temperature, read-out: concentration of an almost saturated solution
Protocol: 2-Amino-4-hydroxy-6-methyl-6-phenyl-5,6,7,8-tetrahydropteridine ([…]): The above dry quinoid-dihydropteridine was reduced in near quantitative yield by addition of 0.5 M 2-mercaptoethanol at room temperature, such that the final concentration of product was approximately 10 mM (an almost saturated solution at neutral pH). To obtain the pure dihydrochloride salt, this solution was rotary evaporated to an oil which was dissolved in 2M HCl in methanol and 4 volumes of ethyl ether added, and the precipitate collected by centrifugation and washed twice by resuspension in fresh ethyl ether, followed by centrifugation.

[8] = system: phenylalanine hydroxylase; details: cited from earlier work
[9] = system: striatal tyrosine hydroxylase; details: cited from earlier work
[10] = substrate produced by Bromine oxidation
[11] = substrate produced by Phe hydroxylase + phe

Relative Vmax Sheep [1, 10]: 1
Relative Vmax Sheep [1, 11]: 1
half-life ([2]; 0.1 m tris-hcl, air, pH 7.4, pH 7.4 (0.1 M Tris·HCl), 27°C, air, read-out: t 1/2 (converted)): 4 h
half-life ([2]; 0.1 m tris-hcl, air, pH 7.4, pH 7.4 (0.1 M Tris·HCl), 37°C, air, read-out: t 1/2 (converted)): 1.25 h
half-life ([2]; 0.1 m tris-hcl, argon, pH 7.4, pH 7.4 (0.1 M Tris·HCl), 37°C, argon, read-out: t 1/2 (converted)): 1.25 h
half-life ([2]; 1n hcl, air, pH 0, pH 0 (1N HCl), 37°C, air, read-out: t 1/2 (converted)): 0.75 h
half-life ([2]; 1n hcl, argon, pH 0, pH 0 (1N HCl), 37°C, argon, read-out: t 1/2 (converted)): 0.75 h
half-life ([2]; aerated (CH3)2SO at -80°C): several weeks
half-life ([2]; dmso, aerated (CH3)2SO at ambient temperature, read-out: half-life (converted)): ~48 h
t 1/2 ([2]; pH 6.8 (Tris-MES 0.1M), 0°C (on ice), air): 104 h
storage stability of the dry powder ([2]; stored desiccated for several months at -80°C): no detectable change
half-life ([2]; tris-mes 0.1 m, air, pH 6.8, pH 6.8 (Tris-MES 0.1M), 0°C (on ice), air, read-out: t 1/2 (converted)): > 100 h
inhibition of purified phenylalanine hydroxylase [4]: No inhibition
pKa [5]: 5.15 ± 0.05
Relative Vmax Beef [6, 10]: 1
Relative Vmax Beef ([6]; substrate produced by Peroxidase + H2O2): 1
Relative Vmax Beef [6, 11]: 1
SMILES: CC1(C)CNC2=NC(N)=NC(=O)C2=N1 [Quinoid-6,6-Me2PH2, 2-Amino-6,6-dimethyl-4-hydroxyquinoid-dihydropteridine]
stability relative to the quinoid forms of 6-methyldihydropterin or dihydrobiopterin [2]: one to two orders of magnitude more stable
rearrangement to a 7,8-dihydropterin ([2]; in contrast to quinoid dihydropterin monosubstituted at C6): does not appear to rearrange to a 7,8-dihydropterin
rate of reduction (k) ([3]; with NADH): 11 M⁻¹ s⁻¹
rate of reduction (k) ([3]; with NADPH): 11 M⁻¹ s⁻¹
rate of reduction (k) ([3]; with absorbic acid): 11 M⁻¹ s⁻¹
rate of reduction (k) ([3]; with cysteine): 2.67 M⁻¹ s⁻¹

solubility [7]: ~10 mM (≈ 2570 µg/mL)
SMILES: CC1(c2ccccc2)CNc2nc(N)nc(O)c2N1 (centres unmarked) [6-Phenyl-6-Methyl-PH4, 2-Amino-4-hydroxy-6-methyl-6-phenyl-5,6,7,8-tetrahydropteridine]

SMILES: Nc1nc2c(c(=O)[nH]1)NC(c1ccccc1)CN2 (centres unmarked) [Compound 6-Phenyl-PH4, 6-phenyltetrahydropterin]
decrease of Vmax compared to tetrahydrobiopterin [8]: 10 fold
increase of Vmax compared to tetrahydrobiopterin [9]: 10 fold
